Measured values published in patent US10870647B2, “Imidazopyridine derivative, method for preparing same, and pharmaceutical composition containing same as active ingredient for preventing or treating cancer” (DAEGU-GYEONGBUK MEDICAL INNOVATION FOUNDATION, priority 2016, dated 2020).

Columns and labels:
Assay in all cases: Kinase selectivity, scanMAX Kinase assay panel (DiscoverX), % control at 1 uM
Format in all cases: binding
[1] = molecular target: T1, scanMAX Kinase assay panel (Homo sapiens, UniProt P11309); conditions: PIM1; 1 uM; read-out: Percent Control (%)
T1 construct: purchased DiscoverX
Method in brief: (§1)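 Binding across the scanMAX kinase panel was tested at 1 uM compound. % control = (compound − positive control)/(negative control − positive control) × 100; below 35 counted as active.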

[2] = molecular target: T2, scanMAX Kinase assay panel (Homo sapiens, UniProt P15056); conditions: BRAF; 1 uM; read-out: Percent Control (%)
T2 construct: purchased DiscoverX
Method in brief: as §1

[3] = molecular target: T3, scanMAX Kinase assay panel (Homo sapiens, UniProt P17612); conditions: PKAC-alpha; 1 uM; read-out: Percent Control (%)
T3 construct: purchased DiscoverX
Method in brief: as §1

[4] = molecular target: T4, scanMAX Kinase assay panel (Homo sapiens, UniProt P30530); conditions: AXL; 1 uM; read-out: Percent Control (%)
T4 construct: purchased DiscoverX
T4 sequence (P30530 26-894): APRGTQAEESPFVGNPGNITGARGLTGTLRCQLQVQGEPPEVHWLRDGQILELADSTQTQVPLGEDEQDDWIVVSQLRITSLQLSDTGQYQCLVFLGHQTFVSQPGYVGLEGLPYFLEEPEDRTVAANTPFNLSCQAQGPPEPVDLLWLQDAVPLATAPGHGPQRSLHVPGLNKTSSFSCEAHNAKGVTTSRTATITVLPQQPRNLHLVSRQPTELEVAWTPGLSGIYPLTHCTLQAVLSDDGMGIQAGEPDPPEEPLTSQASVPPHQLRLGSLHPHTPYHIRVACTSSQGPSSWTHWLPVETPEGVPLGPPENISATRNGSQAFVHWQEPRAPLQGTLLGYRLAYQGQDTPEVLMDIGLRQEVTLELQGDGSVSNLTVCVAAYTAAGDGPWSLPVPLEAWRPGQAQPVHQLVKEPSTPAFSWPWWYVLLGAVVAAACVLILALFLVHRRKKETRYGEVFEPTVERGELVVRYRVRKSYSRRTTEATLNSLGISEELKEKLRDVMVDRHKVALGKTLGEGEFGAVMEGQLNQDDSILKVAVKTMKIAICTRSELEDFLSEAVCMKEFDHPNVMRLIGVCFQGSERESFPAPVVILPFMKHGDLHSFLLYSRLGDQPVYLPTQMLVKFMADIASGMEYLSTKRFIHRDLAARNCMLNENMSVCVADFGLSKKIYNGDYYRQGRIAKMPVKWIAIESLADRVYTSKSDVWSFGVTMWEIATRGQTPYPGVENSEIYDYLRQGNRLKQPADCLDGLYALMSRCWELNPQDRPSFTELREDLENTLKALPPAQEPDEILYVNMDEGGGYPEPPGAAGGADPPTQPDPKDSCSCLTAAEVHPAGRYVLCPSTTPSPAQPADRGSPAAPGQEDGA
Method in brief: as §1

[5] = molecular target: T5, scanMAX Kinase assay panel (Homo sapiens, UniProt P49761); conditions: CLK3; 1 uM; read-out: Percent Control (%)
T5 construct: purchased DiscoverX
Method in brief: as §1

[6] = molecular target: T6, scanMAX Kinase assay panel (Homo sapiens, UniProt P51451); conditions: BLK; 1 uM; read-out: Percent Control (%)
T6 construct: purchased DiscoverX
Method in brief: as §1

[7] = molecular target: T7, scanMAX Kinase assay panel (Homo sapiens, UniProt Q00532); conditions: CDKL1; 1 uM; read-out: Percent Control (%)
T7 construct: purchased DiscoverX
Method in brief: as §1

[8] = molecular target: T8, scanMAX Kinase assay panel (Homo sapiens, UniProt Q8TBX8); conditions: PIP5K2C; 1 uM; read-out: Percent Control (%)
T8 construct: purchased DiscoverX
T8 sequence (Q8TBX8 1-421): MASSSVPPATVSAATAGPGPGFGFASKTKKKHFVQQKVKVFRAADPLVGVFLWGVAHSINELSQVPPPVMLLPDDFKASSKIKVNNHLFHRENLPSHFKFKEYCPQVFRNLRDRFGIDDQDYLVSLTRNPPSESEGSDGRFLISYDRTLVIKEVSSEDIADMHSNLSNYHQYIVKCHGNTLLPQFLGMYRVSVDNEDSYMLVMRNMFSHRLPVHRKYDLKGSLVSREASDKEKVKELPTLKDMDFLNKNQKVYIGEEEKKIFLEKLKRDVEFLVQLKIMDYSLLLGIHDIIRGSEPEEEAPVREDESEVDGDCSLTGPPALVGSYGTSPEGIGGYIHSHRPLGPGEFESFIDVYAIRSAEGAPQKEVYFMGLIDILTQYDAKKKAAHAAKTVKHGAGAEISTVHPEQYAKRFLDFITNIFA
Method in brief: as §1

[9] = molecular target: T9, scanMAX Kinase assay panel (Homo sapiens, UniProt Q9C098); conditions: DCAMKL3; 1 uM; read-out: Percent Control (%)
T9 construct: purchased DiscoverX
Method in brief: as §1

[10] = molecular target: T10, scanMAX Kinase assay panel (Homo sapiens, UniProt Q9H2G2); conditions: SLK; 1 uM; read-out: Percent Control (%)
T10 construct: purchased DiscoverX
Method in brief: as §1

[11] = molecular target: T11, scanMAX Kinase assay panel (Homo sapiens, UniProt Q9NY57); conditions: YANK2; 1 uM; read-out: Percent Control (%)
T11 construct: purchased DiscoverX
Method in brief: as §1

[12] = molecular target: T12, scanMAX Kinase assay panel (Homo sapiens, UniProt Q9Y2H1); conditions: NDR2; 1 uM; read-out: Percent Control (%)
T12 construct: purchased DiscoverX
Method in brief: as §1

T12 sequence (Q9Y2H1 whole entry): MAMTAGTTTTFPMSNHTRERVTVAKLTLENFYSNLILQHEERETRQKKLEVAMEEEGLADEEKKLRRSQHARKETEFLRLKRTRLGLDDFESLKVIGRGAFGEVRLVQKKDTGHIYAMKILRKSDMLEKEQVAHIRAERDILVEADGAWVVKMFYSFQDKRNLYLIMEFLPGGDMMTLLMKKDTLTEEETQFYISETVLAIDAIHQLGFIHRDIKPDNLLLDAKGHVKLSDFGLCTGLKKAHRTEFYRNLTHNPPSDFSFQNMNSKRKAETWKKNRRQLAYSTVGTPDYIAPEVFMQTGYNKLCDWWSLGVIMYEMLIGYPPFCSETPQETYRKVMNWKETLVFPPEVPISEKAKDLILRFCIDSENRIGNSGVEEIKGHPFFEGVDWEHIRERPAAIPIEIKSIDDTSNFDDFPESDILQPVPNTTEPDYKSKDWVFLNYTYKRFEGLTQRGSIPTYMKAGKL
T6 sequence (P51451 whole entry): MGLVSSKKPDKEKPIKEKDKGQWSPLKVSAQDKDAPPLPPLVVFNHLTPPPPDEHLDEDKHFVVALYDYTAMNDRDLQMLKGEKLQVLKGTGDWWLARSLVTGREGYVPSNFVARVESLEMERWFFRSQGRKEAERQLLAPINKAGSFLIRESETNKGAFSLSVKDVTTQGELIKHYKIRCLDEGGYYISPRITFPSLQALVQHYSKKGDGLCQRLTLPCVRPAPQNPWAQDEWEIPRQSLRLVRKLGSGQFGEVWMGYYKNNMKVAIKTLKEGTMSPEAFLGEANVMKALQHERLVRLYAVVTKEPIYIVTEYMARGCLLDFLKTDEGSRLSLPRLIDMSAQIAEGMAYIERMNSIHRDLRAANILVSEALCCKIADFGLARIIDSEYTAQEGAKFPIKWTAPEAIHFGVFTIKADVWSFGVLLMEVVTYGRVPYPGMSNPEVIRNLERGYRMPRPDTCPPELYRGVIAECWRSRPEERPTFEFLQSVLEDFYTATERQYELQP
T5 sequence (P49761 whole entry): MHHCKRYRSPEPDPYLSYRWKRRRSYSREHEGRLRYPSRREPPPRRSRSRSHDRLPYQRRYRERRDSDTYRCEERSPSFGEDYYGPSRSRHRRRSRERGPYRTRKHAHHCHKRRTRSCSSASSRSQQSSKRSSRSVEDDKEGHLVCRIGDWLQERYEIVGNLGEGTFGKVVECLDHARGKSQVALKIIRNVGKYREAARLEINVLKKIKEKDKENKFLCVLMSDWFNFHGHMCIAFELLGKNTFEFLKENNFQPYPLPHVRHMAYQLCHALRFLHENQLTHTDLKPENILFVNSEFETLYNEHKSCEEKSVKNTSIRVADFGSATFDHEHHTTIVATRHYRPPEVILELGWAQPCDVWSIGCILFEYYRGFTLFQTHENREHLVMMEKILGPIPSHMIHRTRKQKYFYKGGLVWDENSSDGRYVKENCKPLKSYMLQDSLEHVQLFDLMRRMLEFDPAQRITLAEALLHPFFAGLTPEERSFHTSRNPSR
T9 sequence (Q9C098 whole entry): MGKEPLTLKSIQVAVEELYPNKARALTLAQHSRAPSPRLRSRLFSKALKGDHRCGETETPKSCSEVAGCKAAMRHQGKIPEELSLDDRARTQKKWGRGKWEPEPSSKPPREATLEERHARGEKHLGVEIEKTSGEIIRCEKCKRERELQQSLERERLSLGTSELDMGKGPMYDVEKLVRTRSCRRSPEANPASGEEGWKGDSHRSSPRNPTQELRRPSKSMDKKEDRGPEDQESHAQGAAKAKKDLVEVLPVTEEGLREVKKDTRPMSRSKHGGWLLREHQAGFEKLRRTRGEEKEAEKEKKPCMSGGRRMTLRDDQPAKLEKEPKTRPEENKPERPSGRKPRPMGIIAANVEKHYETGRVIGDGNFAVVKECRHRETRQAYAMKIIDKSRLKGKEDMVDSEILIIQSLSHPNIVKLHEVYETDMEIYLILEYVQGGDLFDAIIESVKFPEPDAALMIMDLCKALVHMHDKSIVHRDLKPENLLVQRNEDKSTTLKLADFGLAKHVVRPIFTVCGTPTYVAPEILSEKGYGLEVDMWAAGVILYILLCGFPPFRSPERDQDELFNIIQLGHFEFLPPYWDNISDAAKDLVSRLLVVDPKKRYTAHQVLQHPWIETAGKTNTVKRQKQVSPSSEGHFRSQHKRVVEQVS
T11 sequence (Q9NY57 whole entry): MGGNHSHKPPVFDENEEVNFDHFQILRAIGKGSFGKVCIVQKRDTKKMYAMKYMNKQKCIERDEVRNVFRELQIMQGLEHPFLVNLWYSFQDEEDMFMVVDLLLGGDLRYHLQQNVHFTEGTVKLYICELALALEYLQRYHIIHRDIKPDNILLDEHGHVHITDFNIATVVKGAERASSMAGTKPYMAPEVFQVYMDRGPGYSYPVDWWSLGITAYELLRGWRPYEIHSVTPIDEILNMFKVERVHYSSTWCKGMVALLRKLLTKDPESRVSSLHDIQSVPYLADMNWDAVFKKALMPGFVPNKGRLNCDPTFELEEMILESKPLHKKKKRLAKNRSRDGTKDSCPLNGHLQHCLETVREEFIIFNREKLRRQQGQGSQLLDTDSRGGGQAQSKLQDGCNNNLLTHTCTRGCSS
T1 sequence (P11309 whole entry): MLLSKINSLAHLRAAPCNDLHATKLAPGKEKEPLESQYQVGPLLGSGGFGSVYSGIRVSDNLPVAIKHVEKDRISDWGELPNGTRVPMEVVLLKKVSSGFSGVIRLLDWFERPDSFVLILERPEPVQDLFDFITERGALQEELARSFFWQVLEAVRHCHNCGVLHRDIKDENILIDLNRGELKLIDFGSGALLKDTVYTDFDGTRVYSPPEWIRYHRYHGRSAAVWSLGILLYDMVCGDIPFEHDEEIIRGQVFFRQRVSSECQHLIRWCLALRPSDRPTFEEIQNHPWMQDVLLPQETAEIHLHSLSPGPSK
T10 sequence (Q9H2G2 whole entry): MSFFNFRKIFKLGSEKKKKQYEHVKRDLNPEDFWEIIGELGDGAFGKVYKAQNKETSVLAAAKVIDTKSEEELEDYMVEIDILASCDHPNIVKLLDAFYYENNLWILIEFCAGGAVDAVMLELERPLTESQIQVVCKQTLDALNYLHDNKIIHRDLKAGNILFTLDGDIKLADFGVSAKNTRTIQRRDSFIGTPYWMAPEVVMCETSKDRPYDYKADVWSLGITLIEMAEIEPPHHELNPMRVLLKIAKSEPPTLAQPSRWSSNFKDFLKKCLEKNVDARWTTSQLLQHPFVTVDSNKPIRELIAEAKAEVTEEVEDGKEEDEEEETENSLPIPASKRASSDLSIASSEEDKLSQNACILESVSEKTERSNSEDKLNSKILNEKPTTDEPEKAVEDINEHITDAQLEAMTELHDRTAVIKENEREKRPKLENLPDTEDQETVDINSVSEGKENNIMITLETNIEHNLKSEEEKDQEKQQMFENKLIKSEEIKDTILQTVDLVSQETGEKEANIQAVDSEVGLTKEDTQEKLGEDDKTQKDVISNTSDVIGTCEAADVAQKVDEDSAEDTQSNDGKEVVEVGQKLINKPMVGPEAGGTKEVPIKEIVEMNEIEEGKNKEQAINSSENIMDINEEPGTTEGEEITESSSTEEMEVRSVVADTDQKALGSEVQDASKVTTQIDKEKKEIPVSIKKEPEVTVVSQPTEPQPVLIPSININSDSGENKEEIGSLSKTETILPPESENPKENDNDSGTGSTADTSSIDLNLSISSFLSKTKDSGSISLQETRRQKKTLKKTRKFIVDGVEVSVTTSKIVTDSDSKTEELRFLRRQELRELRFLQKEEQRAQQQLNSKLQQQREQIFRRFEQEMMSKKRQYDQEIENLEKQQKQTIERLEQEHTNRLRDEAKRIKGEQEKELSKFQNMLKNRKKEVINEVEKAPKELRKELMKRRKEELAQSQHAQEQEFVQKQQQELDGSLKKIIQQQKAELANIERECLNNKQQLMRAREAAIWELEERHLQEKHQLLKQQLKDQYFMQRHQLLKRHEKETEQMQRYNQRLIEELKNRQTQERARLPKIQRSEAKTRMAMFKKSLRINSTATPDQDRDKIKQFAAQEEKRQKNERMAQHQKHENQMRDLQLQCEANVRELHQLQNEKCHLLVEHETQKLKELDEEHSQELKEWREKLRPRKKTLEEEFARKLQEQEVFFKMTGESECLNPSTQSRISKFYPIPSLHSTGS
T7 sequence (Q00532 whole entry): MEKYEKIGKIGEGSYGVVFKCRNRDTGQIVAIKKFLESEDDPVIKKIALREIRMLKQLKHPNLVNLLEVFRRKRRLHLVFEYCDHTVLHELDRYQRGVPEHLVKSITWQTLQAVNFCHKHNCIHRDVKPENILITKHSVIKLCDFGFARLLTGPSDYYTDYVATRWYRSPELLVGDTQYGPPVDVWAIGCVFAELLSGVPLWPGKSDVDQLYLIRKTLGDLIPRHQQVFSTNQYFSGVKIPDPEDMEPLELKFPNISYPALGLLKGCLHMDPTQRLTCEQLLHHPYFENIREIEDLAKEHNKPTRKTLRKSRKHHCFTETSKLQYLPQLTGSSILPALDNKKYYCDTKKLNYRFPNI

Row | SMILES | remaining binding at 1 µM [1] [%] | remaining binding at 1 µM [2] [%] | remaining binding at 1 µM [3] [%] | remaining binding at 1 µM [4] [%] | remaining binding at 1 µM [5] [%] | remaining binding at 1 µM [6] [%] | remaining binding at 1 µM [7] [%] | remaining binding at 1 µM [8] [%] | remaining binding at 1 µM [9] [%] | remaining binding at 1 µM [10] [%] | remaining binding at 1 µM [11] [%] | remaining binding at 1 µM [12] [%]
1 | Cc1ccc(NC(=O)C2(C(=O)Nc3ccc(F)cc3)CC2)cc1C#Cc1cnc2c(Nc3cnn(C(C)C)c3)cccn12 [Example 78] | 100 | 100 | 100 | 93 | 100 | 35 | 83 | 95 | 100 | 11 | 100 | 98
2 | Cc1cn(-c2cc(NC(=O)c3ccc(C)c(C#Cc4cnc5c(Nc6cnn(C)c6)cccn45)c3)cc(C(F)(F)F)c2)cn1 [Example 12, 4-methyl-N-(3-(4-methyl-1H-imidazol-1-yl)-5-(trifluoromethyl)phenyl)-3-((8-((1-methyl-1H-pyrazol-4-yl)amino)imidazo[1,2-a]pyridin-3-yl)ethynyl)benzamide] | 92 | 80 | 93 | 48 | 100 | 1 | 60 | 73 | 88 | 5 | 99 | 84
3 | Cc1ccc(C(=O)Nc2ccc(CN3CCN(C)CC3)c(C(F)(F)F)c2)cc1C#Cc1cnc2c(Nc3cnn(C)c3)cccn12 [Example 1, 4-methyl-3-((8-((1-methyl-1H-pyrazol-4-yl)amino)imidazo[1,2-a]pyridin-3-yl)ethynyl)-N-(4-((4-methylpiperazin-1-yl)methyl)-3-(trifluoromethyl)phenyl)benzamide] | 82 | 18 | 35 | 2 | 48 | 0 | 25 | 97 | 98 | 0 | 100 | 23
